# Earlier results as cited in patent publication US9579356B2, “Dietary supplements for reducing cholesterol levels” (RELIV INTERNATIONAL INC., priority 2006, dated 2017).
# Experiments:
# [1] = test system: rats which were fed a high cholesterol diet
# [2] = test system: patients with LDL-cholesterol levels exceeding 160 mg/dl; settings: after eight weeks; policosanol 10 mg/day, lovastatin 20 mg/day, simvastatin 10 mg/day
# [3] = test system: individuals having initial total cholesterol levels exceeding 260 mg/dL; settings: 15 grams daily, three weeks
# [4] = test system: individuals having total cholesterol levels ranging from 210 to 326 mg/dL; settings: 3.5 g daily, after two weeks
# rats = settings: dietary supplementation
molecule,measurement,setting,value
Oc1ccc(C=Cc2cc(O)cc(O)c2)cc1 [Resveratrol],cholesterol and triglyceride liver deposition,[1],inhibited
same,low-density lipoprotein (LDL) cholesterol levels,[1],lowered
same,ratio of total cholesterol to high-density lipoprotein (HDL) cholesterol,[1],reduced
same,serum triglyceride levels,[1],lowered
same,leukotriene production,human neutrophils,induce
CC[C@H](C)C(=O)O[C@H]1C[C@@H](C)C=C2C=C[C@H](C)[C@H](CC[C@@H]3C[C@@H](O)CC(=O)O3)[C@H]21 [lovastatin],reduced LDL-cholesterol levels,[2],about 22%
beta-glucan,reduced LDL cholesterol,[3],about 23%
same,reduced total cholesterol,[3],about 19%
same,reduction in total cholesterol,[4],5.4%
O=C(O)[C@@H](O)[C@@H](O)[C@H](O)[C@@H](O)C(=O)[O-].[K+] [potassium hydrogen D-glucarate],lowering VLDL cholesterol,rats,effective
same,lowering total triglycerides,rats,effective
O=C([O-])[C@@H](O)[C@@H](O)[C@H](O)[C@@H](O)C(=O)[O-].[Ca+2] [calcium D-glucarate],lowering VLDL cholesterol,rats,did not demonstrate similar effects
same,lowering total triglycerides,rats,did not demonstrate similar effects
